Measurements taken from ChEMBL document CHEMBL3414444, “Antiplasmodial activity: the first proof of inhibition of heme crystallization by marine isonitriles” (Eur J Med Chem, 2015).
pIC50: −log10 of the molar value.

Columns and labels:
[1] = test system: Plasmodium falciparum; experiment: Antiplasmodial activity against Plasmodium falciparum K1; assay type: functional, organism-based
[2] = test system: Plasmodium falciparum; experiment: Antiplasmodial activity against Plasmodium falciparum W2; assay type: functional, organism-based
[3] = test system: Plasmodium falciparum; experiment: Antiplasmodial activity against Plasmodium falciparum D6; assay type: functional, organism-based
[4] = Inhibition of beta-hematin formation after 3 to 5 mins by EBHIA assay; assay type: physicochemical
[5] = test system: Plasmodium falciparum; experiment: Antiplasmodial activity against Plasmodium falciparum NF54; assay type: functional, organism-based

Q: With `[C-]#[N+][C@@]1(C)CC[C@H]2[C@H]3[C@H]4C(=CC(C)(C)C[C@@H]4C[C@@H]2C)CC[C@@H]31` as the compound, how does the pIC50 [1] read?
A: 7.62

Q: What about the pIC50 [2] of the same compound?
A: 7.62

Q: And the pIC50 [3]?
A: 7.08

Q: And the “inhibition (INH)” value [4]?
A: 26%

Q: With `[C-]#[N+][C@@]1(C)CC[C@H]2[C@H]3[C@@H]4[C@H](C[C@@H](C)[C@@](C)(N=C=O)[C@H]4CC[C@@H]31)C[C@@H]2C` as the compound, how does the pIC50 [1] read?
A: 8.05

Q: With `CC(C)=CCC[C@@H](C)[C@H]1CC[C@](C)(N=C=S)[C@H]2CCC(C)=C[C@H]12` as the compound, how does the pIC50 [1] read?
A: < 4.52

Q: With `CC1=CC2C(CC1)[C@](C)(N=C=S)CC[C@@H]2C(C)C` (stereo partly drawn) as the compound, how does the pIC50 [5] read?
A: 5.24

Q: And the pIC50 [1]?
A: 5.24

Q: And the “inhibition (INH)” value [4]?
A: 71%

Q: With `[C-]#[N+][C@@]1(C)CC[C@H]2[C@H]3[C@@H](C(=C)CC[C@@H]31)[C@@H](C=C(C)C)C[C@@H]2C` as the compound, how does the pIC50 [2] read?
A: 6.37

Q: What about the “inhibition (INH)” value [4] of the same compound?
A: 14%

Q: For `[C-]#[N+][C@]1(C)CC[C@H](/C(C)=C\C=C\C(C)C)CC1`, which “inhibition (INH)” value [4] is on record?
A: 62%

Q: For `CCN(CC)CCCC(C)Nc1ccnc2cc(Cl)ccc12` (stereo not drawn) [CHLOROQUINE], which “inhibition (INH)” value [4] is on record?
A: 4%
